Patent US20210246505A1, “COMPOSITIONS & METHODS FOR MONITORING DNA REPAIR” (MEMORIAL SLOAN KETTERING CANCER CENTER, priority 2018, published 2021)

Columns and labels:
Type in all cases: cell-based, human
[1] = tested on: HAP1 cells; test: DSBR-seq of a Cas9 break at the AAVS1 locus, HAP1 cells
Text: (§1) In this Example, transfection of the pX330 plasmid, containing the Cas9 and guide RNA (gRNA) expression cassettes to the AAVS1 safe locus, is used. Genomic DNA (gDNA) is collected 3 days post-transfection. To asses—DNA repair by HR, a donor template containing three substitutions around the protospacer adjacent motif (PAM) which limits cut-recut cycles is transfected also. A 500 bp amplicon surrounding the break is used for rapid measurement of DSBR errors via the widely used T7 endonuclease I assay. A 201 bp amplicon surrounding the cut site, but outside of the HR template is amplified, purified via E-gel electrophoresis system, converted into Illumina sequencing libraries, quantified via qPCR, and then sequenced at 200,000× read depth using paired end 150 bp (PE150) Mi-Seq. Unique, nonsingleton reads (occurring more than once) are aligned to the reference sequence using pairwise alignment (for example using Python). The indels and substitutions are cataloged relative to the break site and microhomology (MH) is determined (for example using an internally developed and validated algorithm, see FIG. 8). The reads are categorized as consequences of NHEJ (≤5 bp deletion) or MMEJ (>5 bp deletion with >2 bp MH). The donor template DNA contains key substitutions—thereby providing a readout of HR. […] The PE150 reads are merged using PEAR and then condensed into a set of unique reads. […]

[2] = tested on: HCC1937 BRCA1 deficient cell line; test: DSBR-seq of a Cas9 break at the AAVS1 locus, HCC1937 BRCA1 deficient cells; conditions: with or without inhibitor
Text: as §1

[3] = tested on: HEK293T cells; test: DSBR-seq of a Cas9 break at the AAVS1 locus, HEK293T cells
Text: In this Example, transfection of the pX330 plasmid, containing the Cas9 and guide RNA (gRNA) expression cassettes to the AAVS1 safe locus, is used. Genomic DNA (gDNA) is collected 3 days post-transfection. To asses—DNA repair by HR, a donor template containing three substitutions around the protospacer adjacent motif (PAM) which limits cut-recut cycles is transfected also. A 500 bp amplicon surrounding the break is used for rapid measurement of DSBR errors via the widely used T7 endonuclease I assay. A 201 bp amplicon surrounding the cut site, but outside of the HR template is amplified, purified via E-gel electrophoresis system, converted into Illumina sequencing libraries, quantified via qPCR, and then sequenced at 200,000× read depth using paired end 150 bp (PE150) Mi-Seq. Unique, nonsingleton reads (occurring more than once) are aligned to the reference sequence using pairwise alignment (for example using Python). The indels and substitutions are cataloged relative to the break site and microhomology (MH) is determined (for example using an internally developed and validated algorithm, see FIG. 8). The reads are categorized as consequences of NHEJ (≤5 bp deletion) or MMEJ (>5 bp deletion with >2 bp MH). The donor template DNA contains key substitutions—thereby providing a readout of HR. These experiments are also performed in cells that are isogenic knockout controls of key NHEJ, MMEJ and HR components and using pharmacologic controls in which DNA-PKcs, RAD51, and PARP are inhibited […]. By comparing the experimental reads against those obtained from the knockout controls and/or pharmacologic controls, the specific reads dependent on each pathway were discovered. (FIG. 1). Thus, these methods involve empirically-determined deletion profiles, derived from known controls deficient in each pathway, as signatures to clearly separate and quantify DSBR events occurring by HR, NHEJ and MMEJ. The single double strand break allows for direct analysis of pathway choice in a native genomic location with a blunt-ended DSB. Because both cell cycle dependent pathways (MMEJ and […]) are measured in the same experiment, there is an effective built-in control for confounding cell cycle effects on the use of these pathways. The AAVS1 genomic location was chosen due to its characterization as a safe site of integration without any known phenotypic effects. Transfection of the pX330 plasmid, containing the Cas9 and gRNA expression cassettes, is performed by nucleofection or liposome-based techniques. To detect DNA repair by homologous recombination (HR), a donor template is used containing three substitutions, one on the gRNA side of the break and two on the other side of the break, destroying the protospacer adjacent motif (PAM) and thereby limiting cut-recut cycles. A 500 bp amplicon surrounding the break is used for rapid measurement of DSBR errors via the widely used T7 endonuclease I assay. A 201 bp amplicon surrounding the cut site, but outside of the HR template is amplified, purified via E-gel electrophoresis system, converted into Illumina sequencing libraries, quantified via qPCR, and then sequenced at 200,000× read depth. Paired end 150 bp (PE150) reads are obtained, affording a central 100 bp region of high sequence fidelity adjacent to the cut site. The PE150 reads are merged using PEAR and then condensed into a set of unique reads. Unique reads that only occur once are discarded, as they are likely low-quality reads due to sequencing error. These unique, nonsingleton reads are aligned to the reference sequence using pairwise alignment through Python. The indels and substitutions are cataloged relative to the breaksite. […] The profile of deletion sizes and extent of microhomology differs between break sites, likely owing to site dependent availability of microhomology. We utilized the DNA-PKcs inhibitor NU7441 to measure NHEJ inhibition. […]

Question: With O=c1cc(N2CCOCC2)oc2c(-c3cccc4c3sc3ccccc34)cccc12 [NU7441] as the compound, how does the “12 base pair deletion with 5 bp of microhomology read” value ([1]; HAP1 cells) read?
Answer: Its value is “enhanced”.

Question: And the HR observed [2]?
Answer: Its HR observed is “no HR is observed”.

Question: What about the “12 base pair deletion with 5 bp of microhomology read” value ([3]; 293T cells) of the same compound?
Answer: The value was “enhanced”.

Question: What about the “specific 1 bp deletion read” value ([3]; 293T cells) of the same compound?
Answer: The value was “suppressed”.

Question: What about the HR usage ([3]; FIG. 1I) of the same compound?
Answer: Its HR usage is “increases”.

Question: What about the MMEJ usage ([3]; FIG. 1I) of the same compound?
Answer: The MMEJ usage was “increases”.

Question: What about the NHEJ usage ([3]; FIG. 1I) of the same compound?
Answer: The NHEJ usage was “suppresses”.

Question: And the “decrease of the amplitude of the deletion peak” value ([3]; HEK293T cells, DSB at position 120 of amplicon)?
Answer: Its value is “more than 90%”.

Question: And the “frequency of HR (donor substitution) peaks” value ([3]; HEK293T cells, donor template)?
Answer: Its value is “increased in frequency”.

Question: What about the “width of the deletion peak” value ([3]; HEK293T cells, reflects use of MMEJ) of the same compound?
Answer: Its value is “increases”.

Question: How did the “increase of the frequency of introduced errors overall” value ([1]; G1 arrest by the drug) turn out when CC(=O)c1c(C)c2cnc(Nc3ccc(N4CCNCC4)cn3)nc2n(C2CCCC2)c1=O [palbociclib] was run?
Answer: Its value is ~4 fold.
